Here are results for one compound from patent publication US20220193255A1, “CHLORHEXIDINE SYSTEMS AND METHODS FOR OBTAINING SAME” (priority 2019, published 2022).

SMILES strings stand for the structures.

Series [1] is described as follows: Chlorhexidine gluconate remaining after gamma irradiation, measured by HPLC. The series is classed as physicochemical.
Test in series [2]: as above
The note with it: for Chlorhexidine gluconate after irradiation, % / Preservation, %: initial CHD 0.075 wt %. The series is classed as physicochemical. The protocol: An aqueous solution of silver nitrate salt (as the source of silver) was prepared so that the final concentration of silver in the solution was 60 ppm. A 20 wt % aqueous solution of chlorhexidine gluconate (CHD) was added to make the resulting concentration of 0.05 wt %. Finally, isopropanol was added to achieve the concentration of 4 wt % in the resulting solution. The sample was a transparent colorless liquid. Thermo Scientific Evolution 220 Spectrophotometer was used to monitor the absorbance spectra of the sample, which is shown in FIG. 1 as the dashed line. The 30 ml sample solution was then subjected to irradiation by gamma rays at 7 kGy. The resulting solution was a transparent brownish liquid showing a clear peak of absorption at the wavelength 412.7 nm (solid line in FIG. 1), which corresponds to the presence of silver nanoparticles. The sample of the irradiated solution was presented for imaging to Transmission Electron Microscope (JEOL JEM 2100F) and an example of the image is shown in FIG. 2, which confirms formation of silver nanoparticles in the irradiated solution. The nanoparticles have quasi-spherical form and a visible conjugated layer around their surface. […]
Two identical samples were prepared as described in Example 1, each of them being colorless transparent aqueous solutions containing 60 ppm of silver in the form of silver nitrate, 0.5 wt % of polyvinyl alcohol, 4 wt % of isopropanol and 0.05 wt % of chlorhexidine gluconate. The samples were subjected to different doses of gamma irradiation—the first sample to 7 kGy and the second to 3 kGy. After irradiation the color of the samples changed to the transparent brown.
To evaluate any influence of the amount and the nature of the stabilizing agent, three different samples were prepared as described in Example 1. Each of them contained 30 ppm of silver in the form of silver nitrate and 0.05 wt % of chlorhexidine gluconate in an aqueous solution. The first sample additionally contained 0.5 wt % of polyvinyl alcohol (PVA) and 10 wt % of isopropanol, the second—2 wt % of polyvinyl alcohol and 10 wt % of isopropanol and the third sample additionally contained 1 wt % of polyvinylpyrrolidone (PVP) and 4 wt % of isopropanol. All three samples represented clear colorless liquids before irradiation. The irradiated at 10 kGy samples changed their color to the transparent brown color of different intensities. The concentration of chlorhexidine gluconate was measured using HPLC and determined as 0.015 wt % in the first and the second sample and 0.016 wt % in the third sample. The UV-vis spectra of all three samples show formation of silver nanoparticles, with the only difference that in the sample which contained PVP the nanoparticles are larger than in those which contained PVA (FIG. 5; the “shoulder” of the small dashed line indicates presence of nanoparticles larger than 100 nm).
To evaluate any difference caused by the initial amount of chlorhexidine gluconate, two samples were prepared as in Example 1, but one of them contained 0.05 wt % of chlorhexidine gluconate and another sample contained 0.075 wt % of chlorhexidine gluconate before irradiation. Both samples were irradiated at 7 kGy, by the action of which the nanoparticles of silver were formed in both samples.
To evaluate the influence of the amount of silver present in the form of a silver salt as a precursor for nanoparticles formation, three different samples were prepared as described in Example 1. Each of them contained 0.075 wt % of chlorhexidine gluconate, 0.5 wt % of polyvinyl alcohol and 4 wt % of isopropanol in an aqueous solution. Silver nitrate was added to each of the samples so that the concentration of silver in the samples was 15 ppm, 30 ppm and 60 ppm. All the samples were transparent colorless solutions. They were subjected to gamma irradiation at 7 kGy and the concentration of chlorhexidine gluconate was measured consequently using HPLC. […]

Where [3] appears, read: Example 9: Au 30 ppm (chloroauric acid), isopropanol 4 wt %, initial CHD 0.05 wt %, gamma 3 kGy.
Setting [4] is: Example 1: Ag 60 ppm (silver nitrate), initial CHD 0.05 wt %, isopropanol 4 wt %, gamma 7 kGy.
Where [5] appears, read: Example 2: Ag 60 ppm, PVA 0.5 wt %, isopropanol 4 wt %, initial CHD 0.05 wt %, gamma 7 kGy.
The mark [6] stands for this setting: Example 4, first sample: initial CHD 0.05 wt %, silver nitrate, gamma 7 kGy.
Where [7] appears, read: Example 4, second sample: initial CHD 0.075 wt %, silver nitrate, gamma 7 kGy.
Setting [8] is: Example 5: Ag 15 ppm, PVA 0.5 wt %, isopropanol 4 wt %, gamma 7 kGy.
[9] abbreviates: Example 5: Ag 30 ppm, PVA 0.5 wt %, isopropanol 4 wt %, gamma 7 kGy.
Setting [10] is: Example 5: Ag 60 ppm, PVA 0.5 wt %, isopropanol 4 wt %, gamma 7 kGy.

For `[H]/N=C(\N/C(=N/[H])NCCCCCCNC(=N)NC(=N)Nc1ccc(Cl)cc1)Nc1ccc(Cl)cc1` [chlorhexidine gluconate], the “presence of chlorhexidine in the irradiated sample” value in series [1] (Example 8 (comparative): gold nanoparticles made chemically with ascorbic acid, CHD 0.05 wt % added afterwards, gamma 7 kGy) is given as “not detected”. Further, the “chlorhexidine gluconate detected after irradiation” value in series [1] (setting [3]) was 0.0258 wt %. For the same compound, in series [2] (setting [4]), the “concentration of chlorhexidine gluconate in the irradiated solution” value is recorded as 0.0295 wt %. In addition, the “rate of preservation compared to the initial level before irradiation” value in series [2] (setting [4]) came out at 59%. Moreover, the rate of preservation is listed as 79% in series [2] (Example 2: Ag 60 ppm, PVA 0.5 wt %, isopropanol 4 wt %, initial CHD 0.05 wt %, gamma 3 kGy) and 58.8% in series [2] (setting [5]). In addition, the “chlorhexidine gluconate after irradiation” value in series [2] (setting [5]) was determined as 0.0294 wt %. Also, the “concentration of chlorhexidine gluconate after irradiation” value in series [2] (Example 3, first sample: Ag 30 ppm, initial CHD 0.05 wt %, PVA 0.5 wt %, isopropanol 10 wt %, gamma 10 kGy) turned out to be 0.015 wt %; in series [2] (Example 3, second sample: Ag 30 ppm, initial CHD 0.05 wt %, PVA 2 wt %, isopropanol 10 wt %, gamma 10 kGy), 0.015 wt %; in series [2] (Example 3, third sample: Ag 30 ppm, initial CHD 0.05 wt %, PVP 1 wt %, isopropanol 4 wt %, gamma 10 kGy), 0.016 wt %; in series [2] (setting [6]) it was 0.0294 wt %; in series [2] (setting [7]), 0.052 wt %. Besides, the preservation rate in series [2] (setting [6]) turned out to be 58.8%; in series [2] (setting [7]), 69.3%. The “Chlorhexidine gluconate after irradiation, %” value in series [2] (setting [8]) was determined as 0.043%; in series [2] (setting [9]), 0.049%; in series [2] (setting [10]), 0.052%. Moreover, the figures for the “Preservation, %” value in series [2] (setting [8]), in series [2] (setting [9]) and in series [2] (setting [10]) were 57.33%, 65.33% and 69.33%, respectively. In addition, in series [2] (setting [3]), the preservation is 51.6%.
